Experimental data reported in publication PMC11855827, “High-Throughput Screening of Five Compound Libraries for Anthelmintic Activity and Toxicity Leads to the Discovery of Two Flavonoid Compounds” (International Journal of Molecular Sciences, 2025).
Where “and” joins values, the source holds several entries; their conditions need not be identical. Identical values can stand only once. Like-named read-outs stand apart in the source and are kept apart here.

Tested on: C. elegans
[1] = Table S2, C. elegans SS assay, 110 μM, 0 h, averages of 4 data points
[2] = Table S2, C. elegans SS assay, 110 μM, 24 h, averages of 4 data points

Q: Which “Percentage of motility inhibition 0 h” value [1] does the source give for `CC(C)=CCC[C@@](C)(O)[C@H]1CC[C@]2(C)[C@@H]1[C@H](O)C[C@@H]1[C@@]3(C)CC[C@H](O[C@@H]4O[C@H](CO)[C@@H](O)[C@H](O)[C@H]4O)C(C)(C)[C@@H]3CC[C@]12C` [20(R)-Ginsenoside Rh2] here?
A: 11%

Q: And the “Percentage of motility inhibition 24 h” value [2]?
A: 6%

Q: What does the source list for `CC(C)=CCC[C@@](C)(O)[C@H]1CC[C@]2(C)[C@@H]1[C@H](O)C[C@@H]1[C@@]3(C)CC[C@H](O)C(C)(C)[C@@H]3[C@@H](O)C[C@]12C` [20(R)-Protopanaxatriol]?
A: Percentage of motility inhibition 0 h [1]: 0%; Percentage of motility inhibition 24 h [2]: 21%

Q: What does the source list for `CC(C)=CCC[C@](C)(O)[C@H]1CC[C@]2(C)[C@@H]1[C@H](O)C[C@@H]1[C@@]3(C)CC[C@H](O[C@@H]4O[C@H](CO)[C@@H](O)[C@H](O)[C@H]4O[C@@H]4O[C@H](CO)[C@@H](O)[C@H](O)[C@H]4O)C(C)(C)[C@@H]3CC[C@]12C` [20(S)-Ginsenoside Rg3]?
A: Percentage of motility inhibition 0 h [1]: 0%; Percentage of motility inhibition 24 h [2]: 0%

Q: Which results are given for `CC1=C[C@@H]2C(=O)[C@]3(C=C(C)[C@H](O)[C@@]3(O)[C@@H]1O)[C@H](C)C[C@@H]1[C@H]2C1(C)C` [20-Deoxyingenol]?
A: Percentage of motility inhibition 0 h [1]: 0%; Percentage of motility inhibition 24 h [2]: 21%

Q: What does the source list for `C=C(C)[C@@H]1CC[C@]2(C(=O)O)CC[C@]3(C)[C@H](CC[C@@H]4[C@@]5(C)CC[C@H](O)[C@@](C)(CO)[C@@H]5CC[C@]43C)[C@@H]12` [23-Hydroxybetulinic acid]?
A: Percentage of motility inhibition 0 h [1]: 13%; Percentage of motility inhibition 24 h [2]: 5%

Q: For `CC(=O)O[C@@H]1C[C@@]23C[C@@]24CC[C@H](O[C@@H]2OC[C@@H](O)[C@H](O)[C@H]2O)C(C)(C)[C@@H]4CC[C@H]3[C@]2(C)C[C@@H]3O[C@@]4(C[C@@H](C)[C@@H]3[C@@]12C)OC[C@@]1(C)O[C@@H]41` [23-epi-26-Deoxyactein], which “Percentage of motility inhibition 0 h” value [1] is on record?
A: 0%

Q: What about the “Percentage of motility inhibition 24 h” value [2] of the same compound?
A: 5%

Q: For `CC(C)CCC[C@@H](C)[C@H]1CC[C@@]2(C)C3=C(CC[C@]12C)[C@@]1(C)CC[C@H](O)C(C)(C)[C@@H]1CC3` [24,25-Dihydrolanosterol], which “Percentage of motility inhibition 0 h” value [1] is on record?
A: 3%

Q: What about the “Percentage of motility inhibition 24 h” value [2] of the same compound?
A: 4%

Q: Which “Percentage of motility inhibition 0 h” value (110 µM) does the source give for `C=C(CC[C@@H](C)[C@H]1CC[C@@]2(C)[C@@H]3CC[C@H]4C(C)(C)[C@@H](OC(=O)/C=C/c5ccc(O)c(OC)c5)CC[C@@]45C[C@@]35CC[C@]12C)C(C)C` [24-Methylenecycloartanyl ferulate] here?
A: 0%

Q: What about the “Percentage of motility inhibition 24 h” value (110 µM) of the same compound?
A: 11%

Q: Which “Percentage of motility inhibition 0 h” value [1] does the source give for `CC(C)=CCc1c(O)cc2c(c1O)C(=O)C[C@@H](c1ccc(O)cc1)O2` [(2S)‐6‐Prenylnaringenin] here?
A: 0%

Q: And the “Percentage of motility inhibition 24 h” value [2]?
A: 0%

Q: Which “Percentage of motility inhibition 0 h” value [1] does the source give for `COc1cc(O)c(CC=C(C)C)c2c1C(=O)C[C@@H](c1ccc(O)cc1)O2` [(2S)‐Isoxanthohumol] here?
A: 0%

Q: What about the “Percentage of motility inhibition 24 h” value [2] of the same compound?
A: 2%

Q: `CC(C)=CCC[C@@](C)(O)[C@H]1CC[C@]2(C)[C@@H]1[C@H](O)C[C@@H]1[C@@]3(C)CC[C@H](O[C@@H]4O[C@H](CO)[C@@H](O)[C@H](O)[C@H]4O[C@@H]4O[C@H](CO)[C@@H](O)[C@H](O)[C@H]4O)C(C)(C)[C@@H]3CC[C@]12C` [(20R)-Ginsenoside Rg3] was tested. Which “Percentage of motility inhibition 0 h” value [1] did it give?
A: 22%

Q: And the “Percentage of motility inhibition 24 h” value [2]?
A: 15%

Q: What does the source list for `CC(C)=CCC[C@@](C)(O)[C@H]1CC[C@]2(C)[C@@H]1[C@H](O)C[C@@H]1[C@@]3(C)CC[C@H](O)C(C)(C)[C@@H]3[C@@H](O[C@@H]3O[C@H](CO)[C@@H](O)[C@H](O)[C@H]3O)C[C@]12C` [(20R)-Ginsenoside Rh1]?
A: Percentage of motility inhibition 0 h [1]: 13%; Percentage of motility inhibition 24 h [2]: 5%

Q: `CC(C)=CCC[C@@](C)(O)[C@H]1CC[C@]2(C)[C@@H]1[C@H](O)C[C@@H]1[C@@]3(C)CC[C@H](O)C(C)(C)[C@@H]3CC[C@]12C` [(20R)-Protopanaxadiol] was tested. Which “Percentage of motility inhibition 0 h” value [1] did it give?
A: 0%

Q: And the “Percentage of motility inhibition 24 h” value [2]?
A: 43%

Q: What does the source list for `CC(C)=CCC[C@](C)(O)[C@H]1CC[C@]2(C)[C@@H]1[C@H](O)C[C@@H]1[C@@]3(C)CC[C@H](O)C(C)(C)[C@@H]3CC[C@]12C` [(20S)-Protopanaxadiol]?
A: Percentage of motility inhibition 0 h [1]: 21%; Percentage of motility inhibition 24 h [2]: 10%

Q: How did the “Percentage of motility inhibition 0 h” value [1] turn out when `CC(C)=CCC[C@](C)(O)[C@H]1CC[C@]2(C)[C@@H]1[C@H](O)C[C@@H]1[C@@]3(C)CC[C@H](O)C(C)(C)[C@@H]3[C@@H](O)C[C@]12C` [(20S)-Protopanaxatriol] was run?
A: 31%

Q: What about the “Percentage of motility inhibition 24 h” value [2] of the same compound?
A: 32%

Q: Which “Percentage of motility inhibition 0 h” value [1] does the source give for `CC12CCC(CC1=O)C2(C)C` (stereo not drawn) [(+)-Camphor] here?
A: 2% and 0%

Q: And the “Percentage of motility inhibition 24 h” value [2]?
A: 5% and 0%

Q: `C=C1[C@H]2CC[C@@H]3[C@H]2C(C)(C)CCC[C@]13C` [(+)-Longifolene] was tested. Which “Percentage of motility inhibition 0 h” value [1] did it give?
A: 3%

Q: What about the “Percentage of motility inhibition 24 h” value [2] of the same compound?
A: 1%

Q: Which results are given for `CC12CCC(CC1=O)C2(C)C` (stereo not drawn) [(+)‐Camphor]?
A: Percentage of motility inhibition 0 h [1]: 31%; Percentage of motility inhibition 24 h [2]: 1%

Q: Which results are given for `Oc1cc(O)c2c(c1)O[C@H](c1cc(O)c(O)c(O)c1)[C@@H](O)C2` [(+)‐Gallocatechin]?
A: Percentage of motility inhibition 0 h [1]: 0%; Percentage of motility inhibition 24 h [2]: 12%

Q: Which “Percentage of motility inhibition 0 h” value [1] does the source give for `COC1=CC(=O)OC(/C=C/c2ccccc2)C1` (stereo not drawn) [(+)‐Kavain] here?
A: 38%

Q: What about the “Percentage of motility inhibition 24 h” value [2] of the same compound?
A: 14%

Q: Which results are given for `COc1ccc2c(c1O)-c1c(O)c(OC)cc3c1[C@H](C2)[N+](C)(C)CC3.[Cl-]` [(+)‐Magnoflorine (chloride)]?
A: Percentage of motility inhibition 0 h [1]: 0%; Percentage of motility inhibition 24 h [2]: 0%

Q: Which results are given for `COc1ccc2c(c1O)-c1c(O)c(OC)cc3c1[C@H](C2)[N+](C)(C)CC3.[I-]` [(+)‐Magnoflorine (iodide)]?
A: Percentage of motility inhibition 0 h [1]: 10%; Percentage of motility inhibition 24 h [2]: 8%

Q: `CC1=CC[C@@]23C[C@@H]1C(C)(C)[C@@H]2CC[C@H]3C` [(-)-Cedrene] was tested. Which “Percentage of motility inhibition 0 h” value [1] did it give?
A: 0%

Q: What about the “Percentage of motility inhibition 24 h” value [2] of the same compound?
A: 17%

Q: With `Oc1ccc2c(c1)OC[C@H]1c3cc4c(cc3O[C@@H]21)OCO4` [(-)-Maackiain] as the compound, how does the “Percentage of motility inhibition 0 h” value [1] read?
A: 26%

Q: And the “Percentage of motility inhibition 24 h” value [2]?
A: 26%

Q: For `O=C1C=C2C=C[C@@H]3C[C@@]2(O1)[C@H]1CCCCN31` [(-)-Securinine], which “Percentage of motility inhibition 24 h” value [2] is on record?
A: 5%

Q: For `CC1=CCC2CC1C2(C)C` (stereo not drawn) [(-)-α-Pinene], which “Percentage of motility inhibition 0 h” value [1] is on record?
A: 0%

Q: What about the “Percentage of motility inhibition 24 h” value [2] of the same compound?
A: 6%

Q: For `CC1=CC[C@@H](C(C)(C)O)CC1` [(-)-α-Terpineol], which “Percentage of motility inhibition 0 h” value [1] is on record?
A: 15%

Q: What about the “Percentage of motility inhibition 24 h” value [2] of the same compound?
A: 17%

Q: How did the “Percentage of motility inhibition 0 h” value [1] turn out when `C=CC(=C)CC/C=C(\C)CCC=C(C)C` [(E)-β-Farnesene] was run?
A: 0%

Q: What about the “Percentage of motility inhibition 24 h” value [2] of the same compound?
A: 11%

Q: Which results are given for `COc1cc(O)cc(O)c1C(=O)/C=C/c1ccccc1` [(E)‐Cardamonin]?
A: Percentage of motility inhibition 0 h [1]: 13%; Percentage of motility inhibition 24 h [2]: 8%

Q: For `COc1ccc(/C=C/C(=O)c2c(O)cc(OC)cc2OC)cc1` [(E)‐Flavokawain A], which “Percentage of motility inhibition 0 h” value [1] is on record?
A: 33%

Q: What about the “Percentage of motility inhibition 24 h” value [2] of the same compound?
A: 11%

Q: `CC(C)=CCC[C@@H](C)CCO` [(R)-Citronellol] was tested. Which “Percentage of motility inhibition 0 h” value [1] did it give?
A: 1%

Q: And the “Percentage of motility inhibition 24 h” value [2]?
A: 14%

Q: Which “Percentage of motility inhibition 0 h” value [1] does the source give for `COc1ccc2cc1Oc1ccc(cc1)C[C@H]1c3cc(c(OC)cc3CCN1C)Oc1c(O)c(OC)cc3c1[C@H](C2)N(C)CC3` [(R)‐Fangchinoline] here?
A: 44%

Q: And the “Percentage of motility inhibition 24 h” value [2]?
A: 1%

Q: For `CC(C)=CCC[C@H](C)CC=O` [(S)-(-)-Citronellal], which “Percentage of motility inhibition 0 h” value [1] is on record?
A: 18%

Q: And the “Percentage of motility inhibition 24 h” value [2]?
A: 61%
